Reference: patent US4435405A, “Quinoline derivatives which are 5-hydroxytryptamine antagonists” (Imperial Chemical Industries PLC, priority 1981, dated 1984)

Legend:
LD50 in the mouse = conditions: in vivo
LD50 in the rat = conditions: in vivo, female
[1] = ip, intraperitoneally in the mouse

Structure (SMILES)	LD50 (LD50 in the mouse; ip, mouse, male, intraperitoneal) [mg/kg]	LD50 (LD50 in the mouse; mouse, male, oral) [mg/kg]	LD50 (LD50 in the rat; oral) [mg/kg]	LD50 (LD50 in the rat; ip, intraperitoneal) [mg/kg]	LD50 (LD50 in the mouse; [1]) [mg/kg]
CN(C)CCSc1nc2ccccc2cc1-c1ccccc1.Cl [2-(2-dimethylaminoethylthio)-3-phenylquinoline hydrochloride]	75	485	> 1000	128	–
CC(C)c1cc2ccccc2nc1SCCN(C)C.Cl [2-(2-dimethylaminoethylthio)-3-isopropylquinoline hydrochloride]	–	–	–	–	~100
COc1ccccc1-c1cc2ccccc2nc1SCCN(C)C.Cl [2-(2-dimethylaminoethylthio)-3-(o-methoxyphenyl)-quinoline hydrochloride]	–	–	–	–	~150
